Legend:
[1] = 101.33 kPa, Liquid; for speed of sound: Frequency=2 MHz, Linear variable-path acoustic interferometer; for mass density: Vibrating tube method
[2] = xn = mol fraction of the nth substance listed; details: 101 kPa, Liquid; for speed of sound: Frequency=2 MHz, Linear variable-path acoustic interferometer; for mass density: Vibrating tube method

Nc1ccccc1Cl [2-chlorobenzeneamine]
[1]
Details | mass density [kg/m3] | speed of sound [m/s]
303.15 K | 1202.38 | 1468
308.15 K | 1197.56 | –
313.15 K | 1192.97 | 1437
318.15 K | 1187.92 | –
323.15 K | 1183.26 | –

Nc1ccccc1Cl [2-chlorobenzeneamine] + OCc1ccccc1
[2]
Details | mass density, 303.15 K [kg/m3] | mass density, 308.15 K [kg/m3] | mass density, 313.15 K [kg/m3] | mass density, 318.15 K [kg/m3] | mass density, 323.15 K [kg/m3] | speed of sound, 303.15 K [m/s] | speed of sound, 313.15 K [m/s]
x2 = 0.1018 | 1188.36 | 1183.05 | 1178.05 | 1172.74 | 1167.93 | 1470.9 | 1440.8
x2 = 0.2031 | 1173.95 | 1168.26 | 1162.88 | 1157.37 | 1152.55 | 1474.4 | 1445.4
x2 = 0.3041 | 1158.94 | 1153 | 1147.35 | 1141.76 | 1136.87 | 1478 | 1450.2
x2 = 0.4047 | 1143.31 | 1137.27 | 1131.48 | 1125.89 | 1121.03 | 1482.1 | 1455
x2 = 0.5049 | 1126.98 | 1121.04 | 1115.21 | 1109.7 | 1104.91 | 1486.4 | 1459.9
x2 = 0.6047 | 1110.07 | 1104.31 | 1098.62 | 1093.31 | 1088.6 | 1490.9 | 1464.9
x2 = 0.7041 | 1092.58 | 1087.09 | 1081.73 | 1076.67 | 1072.12 | 1495.6 | 1470.1
x2 = 0.8031 | 1074.51 | 1069.49 | 1064.51 | 1059.84 | 1055.47 | 1500.6 | 1475.4
x2 = 0.9017 | 1056 | 1051.53 | 1047 | 1042.77 | 1038.7 | 1506 | 1481

Nc1cccc(Cl)c1 [3-chlorobenzenamine]
[1]
Details | mass density [kg/m3] | speed of sound [m/s]
303.15 K | 1205.75 | 1516
308.15 K | 1201.14 | –
313.15 K | 1196.56 | 1484
318.15 K | 1191.98 | –
323.15 K | 1187.41 | –

Nc1cccc(Cl)c1 [3-chlorobenzenamine] + OCc1ccccc1
[2]
Details | mass density, 303.15 K [kg/m3] | mass density, 308.15 K [kg/m3] | mass density, 313.15 K [kg/m3] | mass density, 318.15 K [kg/m3] | mass density, 323.15 K [kg/m3] | speed of sound, 303.15 K [m/s] | speed of sound, 313.15 K [m/s]
x2 = 0.1021 | 1189.69 | 1184.95 | 1180.24 | 1175.53 | 1170.9 | 1515.4 | 1484.3
x2 = 0.2037 | 1173.42 | 1168.65 | 1163.79 | 1159.09 | 1154.36 | 1514.9 | 1484.6
x2 = 0.3048 | 1156.94 | 1152.15 | 1147.27 | 1142.57 | 1137.82 | 1514.5 | 1484.9
x2 = 0.4055 | 1140.31 | 1135.57 | 1130.63 | 1125.95 | 1121.26 | 1514.1 | 1485.2
x2 = 0.5057 | 1123.48 | 1118.82 | 1113.94 | 1109.34 | 1104.71 | 1513.7 | 1485.5
x2 = 0.6054 | 1106.48 | 1101.95 | 1097.12 | 1092.63 | 1088.14 | 1513.3 | 1485.8
x2 = 0.7048 | 1089.33 | 1084.96 | 1080.3 | 1075.88 | 1071.54 | 1512.9 | 1486.1
x2 = 0.8036 | 1072.05 | 1067.86 | 1063.4 | 1059.13 | 1054.96 | 1512.6 | 1486.4
x2 = 0.902 | 1054.66 | 1050.79 | 1046.44 | 1042.37 | 1038.37 | 1512.3 | 1486.7

CN(C)c1ccccc1 [N,N-dimethylaniline]
[1]
Details | mass density [kg/m3] | speed of sound [m/s]
303.15 K | 948.18 | 1470
308.15 K | 943.55 | –
313.15 K | 939.78 | 1432
318.15 K | 935.3 | –
323.15 K | 931.45 | –

CN(C)c1ccccc1 [N,N-dimethylaniline] + OCc1ccccc1
[2]
Details | mass density, 303.15 K [kg/m3] | mass density, 308.15 K [kg/m3] | mass density, 313.15 K [kg/m3] | mass density, 318.15 K [kg/m3] | mass density, 323.15 K [kg/m3] | speed of sound, 303.15 K [m/s] | speed of sound, 313.15 K [m/s]
x2 = 0.12 | 957.18 | 952.61 | 948.78 | 944.35 | 940.48 | 1475.2 | 1438
x2 = 0.2348 | 966.14 | 961.64 | 957.75 | 953.35 | 949.47 | 1480.2 | 1443.8
x2 = 0.3447 | 974.99 | 970.58 | 966.64 | 962.3 | 958.43 | 1484.8 | 1449.3
x2 = 0.4501 | 983.81 | 979.48 | 975.5 | 971.22 | 967.35 | 1489.2 | 1454.8
x2 = 0.5511 | 992.59 | 988.35 | 984.36 | 980.15 | 976.28 | 1493.5 | 1460.3
x2 = 0.6481 | 1001.4 | 997.24 | 993.26 | 989.1 | 985.25 | 1497.6 | 1465.7
x2 = 0.7412 | 1010.24 | 1006.19 | 1002.16 | 998.09 | 994.24 | 1501.5 | 1471.1
x2 = 0.8308 | 1019.15 | 1015.2 | 1011.16 | 1007.16 | 1003.34 | 1505.1 | 1476.4
x2 = 0.917 | 1028.12 | 1024.28 | 1020.19 | 1016.31 | 1012.49 | 1508.5 | 1481.7

CNc1ccccc1 [N-methylaniline]
[1]
Details | mass density [kg/m3] | speed of sound [m/s]
303.15 K | 981.72 | 1549
308.15 K | 976.04 | –
313.15 K | 970.89 | 1511
318.15 K | 965.81 | –
323.15 K | 961.13 | –

CNc1ccccc1 [N-methylaniline] + OCc1ccccc1
[2]
Details | mass density, 303.15 K [kg/m3] | mass density, 308.15 K [kg/m3] | mass density, 313.15 K [kg/m3] | mass density, 318.15 K [kg/m3] | mass density, 323.15 K [kg/m3] | speed of sound, 303.15 K [m/s] | speed of sound, 313.15 K [m/s]
x2 = 0.1044 | 987.67 | 980.39 | 976.87 | 971.88 | 967.24 | 1545 | 1507.9
x2 = 0.2078 | 993.53 | 986.48 | 982.82 | 977.93 | 973.34 | 1540.9 | 1505.2
x2 = 0.3102 | 999.29 | 992.49 | 988.73 | 983.96 | 979.41 | 1537.1 | 1502.6
x2 = 0.4116 | 1004.92 | 998.45 | 994.6 | 989.97 | 985.5 | 1533.3 | 1500.1
x2 = 0.512 | 1010.45 | 1004.34 | 1000.43 | 995.91 | 991.54 | 1529.6 | 1497.7
x2 = 0.6115 | 1015.9 | 1010.22 | 1006.25 | 1001.87 | 997.59 | 1526.1 | 1495.3
x2 = 0.71 | 1021.26 | 1016.06 | 1012.02 | 1007.8 | 1003.64 | 1522.5 | 1493
x2 = 0.8076 | 1026.57 | 1021.85 | 1017.82 | 1013.73 | 1009.68 | 1518.8 | 1490.8
x2 = 0.9042 | 1031.88 | 1027.64 | 1023.58 | 1019.63 | 1015.72 | 1515.3 | 1488.7

Nc1ccccc1 [aniline]
[1]
Details | mass density [kg/m3] | speed of sound [m/s]
303.15 K | 1012.78 | 1615
308.15 K | 1008.64 | –
313.15 K | 1004.49 | 1578
318.15 K | 1000.36 | –
323.15 K | 996.43 | –

Nc1ccccc1 [aniline] + OCc1ccccc1
[2]
Details | mass density, 303.15 K [kg/m3] | mass density, 308.15 K [kg/m3] | mass density, 313.15 K [kg/m3] | mass density, 318.15 K [kg/m3] | mass density, 323.15 K [kg/m3] | speed of sound, 303.15 K [m/s] | speed of sound, 313.15 K [m/s]
x2 = 0.0895 | 1015.86 | 1011.46 | 1007.17 | 1003.04 | 999.07 | 1605.7 | 1570.1
x2 = 0.181 | 1018.68 | 1014.15 | 1009.79 | 1005.68 | 1001.68 | 1596.1 | 1561.9
x2 = 0.2748 | 1021.37 | 1016.76 | 1012.36 | 1008.28 | 1004.27 | 1586.4 | 1553.5
x2 = 0.3709 | 1023.88 | 1019.29 | 1014.9 | 1010.83 | 1006.82 | 1576.5 | 1544.9
x2 = 0.4693 | 1026.28 | 1021.76 | 1017.36 | 1013.33 | 1009.35 | 1566.6 | 1536
x2 = 0.5701 | 1028.61 | 1024.17 | 1019.82 | 1015.83 | 1011.87 | 1556.3 | 1526.9
x2 = 0.6735 | 1030.85 | 1026.55 | 1022.24 | 1018.31 | 1014.35 | 1545.9 | 1517.5
x2 = 0.7796 | 1033.02 | 1028.88 | 1024.64 | 1020.74 | 1016.84 | 1535.2 | 1507.8
x2 = 0.8884 | 1035.14 | 1031.18 | 1027.03 | 1023.15 | 1019.33 | 1523.9 | 1497.7

OCc1ccccc1 [benzenemethanol]
[1]
Details | mass density [kg/m3] | speed of sound [m/s]
303.15 K | 1037.18 | 1512
308.15 K | 1033.45 | –
313.15 K | 1029.36 | 1487
318.15 K | 1025.57 | –
323.15 K | 1021.78 | –

— the NIST ThermoML archive (doi:10.1016/j.fluid.2018.01.025)
